Measurements reported in ChEMBL document CHEMBL1201862, “PubChem BioAssay data set” (2004).
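All cell lines were grown in 96-well plates and treated with compound for 48 hours. GI50: concentration for 50% inhibition of growth.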 Activity calls are given as the source filed them. Cut-off read from the data, not from the text of the source: active = GI50 up to about 1.1 µM and inactive = higher.

Columns and labels:
Assay in all cases: growth of human tumour cells (NCI), 48 h
[1] = system: HCT-15
[2] = system: SN12C
[3] = system: M14
[4] = system: K562
[5] = system: NCI-H460
[6] = system: SF-268
[7] = system: SK-MEL-5
[8] = system: SW-620
[9] = system: U-251
[10] = system: NCI-H23
[11] = system: HL-60
[12] = system: HT-29
[13] = system: Hs-578T
[14] = system: BT-549
[15] = system: MDA-MB-435
[16] = system: MOLT-4
[17] = system: OVCAR-4
[18] = system: OVCAR-5
[19] = system: SNB-75
[20] = system: OVCAR-3
[21] = system: UACC-62
[22] = system: COLO 205
[23] = system: SR
[24] = system: A549
[25] = system: RPMI-8226
[26] = system: MCF7
[27] = system: HCC 2998
[28] = system: HCT-116
[29] = system: SNB-19
[30] = system: OVCAR-8
[31] = system: NCI-H522
[32] = system: KM12
[33] = system: T47D
[34] = system: HOP-92
[35] = system: SF-539
[36] = system: DU-145
[37] = system: NCI/ADR-RES
[38] = system: MDA-N
[39] = system: SF-295
[40] = system: IGROV-1
[41] = system: HOP-62
[42] = system: Malme-3M
[43] = system: CCRF-CEM
[44] = system: PC-3
[45] = system: MDA-MB-231
[46] = system: ACHN
[47] = system: TK-10
[48] = system: RXF 393
[49] = system: UACC-257
[50] = system: SK-OV-3
[51] = system: 786-0
[52] = system: SK-MEL-28
[53] = system: NCI-H226
[54] = system: A498
[55] = system: CAKI-1
[56] = system: EKVX
[57] = system: LOX IMVI
[58] = system: UO-31
[59] = system: SK-MEL-2

Q: Which results are given for `O=c1cc(-c2ccccc2)[nH]c2ccc(S)cc12`?
A: GI50 [1]: 16.8 µM; GI50 [2]: 18.3 µM (inactive); GI50 [3]: 25.9 µM (inactive); GI50 [4]: 21.9 µM (inactive); GI50 [5]: 31.8 µM (inactive); GI50 [6]: 41.9 µM (inactive); GI50 [7]: 15.5 µM (inactive); GI50 [8]: 38.7 µM (inactive); GI50 [9]: 26.1 µM (inactive); GI50 [10]: 33.9 µM (inactive); GI50 [11]: 35.7 µM (inactive); GI50 [12]: 29 µM (inactive); GI50 [13]: 26.2 µM (inactive); GI50 [14]: 23.5 µM (inactive); GI50 [15]: 21.4 µM (inactive); GI50 [16]: 14.3 µM (inactive); GI50 [17]: 57.1 µM (inactive); GI50 [18]: 86.3 µM (inactive); GI50 [19]: 24.6 µM (inactive); GI50 [20]: 28.6 µM (inactive); GI50 [21]: 17.2 µM (inactive); GI50 [22]: 38.3 µM (inactive); GI50 [23]: 30.8 µM (inactive); GI50 [24]: 52.1 µM (inactive); GI50 [25]: 44.2 µM (inactive); GI50 [26]: 24.2 µM (inactive); GI50 [27]: 21 µM (inactive); GI50 [28]: 24.4 µM (inactive); GI50 [29]: 64.4 µM (inactive); GI50 [30]: 31.7 µM (inactive); GI50 [31]: 21.7 µM (inactive); GI50 [32]: 28.8 µM (inactive); GI50 [33]: 15.1 µM (inactive); GI50 [34]: 35.8 µM (inactive); GI50 [35]: 72.3 µM (inactive); GI50 [36]: 52.2 µM (inactive); GI50 [37]: 24.9 µM (inactive); GI50 [38]: > 10 µM (inactive); GI50 [39]: 38.5 µM (inactive); GI50 [40]: 29.8 µM (inactive); GI50 [41]: 70.3 µM (inactive); GI50 [42]: 27.5 µM (inactive); GI50 [43]: 22.1 µM (inactive); GI50 [44]: 20.6 µM (inactive); GI50 [45]: 65.2 µM (inactive); GI50 [46]: 30.2 µM (inactive); GI50 [47]: 33.9 µM (inactive); GI50 [48]: 31.5 µM (inactive); GI50 [49]: 42.5 µM (inactive); GI50 [50]: 23.7 µM (inactive); GI50 [51]: 79.8 µM (inactive); GI50 [52]: 28.8 µM (inactive); GI50 [53]: 16.1 µM (inactive)

Q: Which results are given for `CC(=O)NC1C(OCc2ccccc2)OC(CO)C(O)C1OCC(=O)NC(C)C(=O)NC(CCC(=O)NCCCCCC(=O)Nc1ccc2c(c1)CN1C(=O)c3ccccc3C1=N2)C(N)=O` (stereo not given)?
A: GI50 [1]: > 100 µM; GI50 [2]: 69.8 µM (inactive); GI50 [54]: > 100 µM (inactive); GI50 [3]: > 100 µM (inactive); GI50 [4]: 45 µM (inactive); GI50 [5]: 43.1 µM (inactive); GI50 [6]: 63.8 µM (inactive); GI50 [7]: 75 µM (inactive); GI50 [8]: 43.5 µM (inactive); GI50 [9]: 48.3 µM (inactive); GI50 [10]: 67.5 µM (inactive); GI50 [11]: > 100 µM (inactive); GI50 [12]: > 100 µM (inactive); GI50 [13]: > 100 µM (inactive); GI50 [14]: > 100 µM (inactive); GI50 [55]: > 100 µM (inactive); GI50 [15]: > 100 µM (inactive); GI50 [56]: > 100 µM (inactive); GI50 [16]: 42.1 µM (inactive); GI50 [17]: > 100 µM (inactive); GI50 [18]: > 100 µM (inactive); GI50 [19]: 49.8 µM (inactive); GI50 [20]: > 100 µM (inactive); GI50 [21]: 57.3 µM (inactive); GI50 [22]: > 100 µM (inactive); GI50 [23]: 17.4 µM (inactive); GI50 [24]: 72.8 µM (inactive); GI50 [57]: 53.1 µM (inactive); GI50 [25]: 38 µM (inactive); GI50 [26]: 35.6 µM (inactive); GI50 [27]: 61.4 µM (inactive); GI50 [28]: 39.6 µM (inactive); GI50 [29]: 63.1 µM (inactive); GI50 [30]: 49.5 µM (inactive); GI50 [32]: 34.5 µM (inactive); GI50 [33]: > 100 µM (inactive); GI50 [34]: 25.3 µM (inactive); GI50 [35]: > 100 µM (inactive); GI50 [36]: > 100 µM (inactive); GI50 [37]: > 100 µM (inactive); GI50 [38]: > 100 µM (inactive); GI50 [39]: 75.7 µM (inactive); GI50 [40]: > 100 µM (inactive); GI50 [41]: 41 µM (inactive); GI50 [42]: 78.3 µM (inactive); GI50 [43]: 32.7 µM (inactive); GI50 [44]: 58.6 µM (inactive); GI50 [45]: > 100 µM (inactive); GI50 [46]: 62.8 µM (inactive); GI50 [47]: 30.3 µM (inactive); GI50 [48]: > 100 µM (inactive); GI50 [58]: > 100 µM (inactive); GI50 [49]: > 100 µM (inactive); GI50 [50]: > 100 µM (inactive); GI50 [51]: 82.8 µM (inactive); GI50 [52]: > 100 µM (inactive); GI50 [59]: > 100 µM (inactive)
